Source: publication PMC8998618, “A Pharmacokinetic and Metabolism Study of the TRPC6 Inhibitor SH045 in Mice by LC-MS/MS” (International Journal of Molecular Sciences, 2022)
“And” between values parts separate entries of the source, which are not always exact repeats. Equal values may be shown once.

What was measured:
[1] = appearance of SH045 in urine after i.v. administration; assay type: in vivo, mice; conditions: 20 mg/kg BW i.v.
Experimental: Mouse renal elimination of SH045 was exploratorily monitored up to their first spontaneous micturition after i.v. administration (20 mg/kg BW). Samples of released urine were assigned to micturition periods of 10–30, 60–80, or 100–120 min following application. Mean urine concentrations of unmetabolized SH045 of 748 ± 31 (n = 3), 1056 ± 104 (n = 3), and 162 ± 17 nM (n = 6), respectively, were recorded.
Via heparin-coated catheters a maximum of 50 µL blood was collected from the tail vein at 0.25, 0.5, 1, 2, 3, 4, 6, 8, or 24 h after administration and immediately centrifuged at 4000× g at 4 °C for 10 min. For repeated administration 20 mg/kg BW SH045 were administered at 8:00 a.m. on five consecutive days, once a day. Blood was taken 1 h and 24 h after drug administration. Tissue samples were harvested from isoflurane-euthanized animals at indicated time points. Mice were transcardially perfused with PBS and dissected tissues were washed to remove remaining blood. Plasma and tissue samples were stored at −80 °C until analysis. Urine was collected by bladder puncture at indicated time points.
For tissue analysis, homogenates (10% in phosphate-buffered saline, PBS) were prepared. Homogenate, plasma, and urine were mixed with IS and extracted with ice-cold ACN, centrifuged, filtered and stored in the autosampler at 6 °C until analysis in duplicates by LC-MS/MS (details in Supplementary Materials SM4).

liver, kidney and lung = assay: histopathological examination of tissue after administration of SH045; assay type: in vivo, mice; conditions: 20 mg/kg BW i.v., single and repeated (5 days); hematoxylin-eosin
Excerpt: Liver, kidney, and lung were collected after repeated administration, fixed and processed for inspection for histopathological alterations (Supplementary Materials SM3).
Larixyl-N-methylcarbamate ((1S,4S,4aR,8aS)-4-((S)-3-hydroxy-3-methylpent-4-en-1-yl)-4a,8,8-trimethyl-3-methylenedeca-hydro-naphthalen-1-yl methylcarbamate, SH045, TRPC6 inhibitor) was synthesized as described by Häfner et al. [1]. (+)-Larixol (internal standard, IS) was isolated from Larix decidua turpentine [2]. Kolliphor® EL was obtained from Caelo (Hilden, Germany). Acetonitrile (ACN), water, and formic acid (LC -MS grade each) were purchased from Fisher Scientific (Schwerte, Germany). […]
SM2 Quantification of SH045 by HPLC and tandem mass spectrometric methods (LC-MS/MS) In brief, chromatographic separation was achieved using a Zorbax Eclipse XDB-C8 column (100 × 3.0 mm, 3.5 μm 80 Å, Agilent Technologies) with linear gradient elution using water and ACN, each with 0.1 % formic acid as additive, during a total run time of 20 min. For quantification (+)-larixol was used as IS. […] Freshly prepared calibration samples for SH045 in plasma and tissue comprised eight concentration levels analyzed in duplicates (2, 5, 10, 100, 200, 800, 1200 and 1600 ng/mL). […]

## C=C[C@@](C)(O)CC[C@H]1C(=C)C[C@H](OC(=O)NC)[C@H]2C(C)(C)CCC[C@]12C [SH045, (1S,4S,4aR,8aS)-4-((S)-3-Hydroxy-3-methylpent-4-en-1-yl)-4a,8,8-trimethyl-3-methylenedecahydronaphthalen-1-yl methylcarbamate]
[1]
  urine concentration after 2 h relative to IC50 reported in vitro: about 30 fold
[1]; micturition period 10–30 min
  mean urine concentration of unmetabolized SH045: 748 ± 31 nM
[1]; micturition period 60–80 min
  mean urine concentration of unmetabolized SH045: 1056 ± 104 nM
[1]; micturition period 100–120 min
  mean urine concentration of unmetabolized SH045: 162 ± 17 nM and 160 nM
liver, kidney and lung
  histopathological changes in liver, kidney and lung: no histopathological changes were observed
